Here are results for 13 compounds from patent US11193110B2, “Methods to generate gastrointestinal epithelial tissue constructs” (The University of North Carolina at Chapel Hill, priority 2015, dated 2021).

“Also recorded” adds a separate entry of the source.

The subject of data set [1] is primary intestinal epithelial cells. Nature of the data set: screen of dietary compounds and natural products on primary intestinal epithelial cells on collagen hydrogel (Hoechst 33342, EDU, alkaline phosphatase, Muc2). It counts as cell-based. Particulars: 48 h incubation at Table 1 concentration; for S-phase or proliferating cells (EDU) / number of nuclei / cell number (Hoechst 33342): relative to control cells cultured in ENR-W; for enterocyte phenotype (alkaline phosphatase expression): p=0.01 (#42), p=0.02 (#31), p=0.002 (#51); for growth suppression: both number of nuclei and S-phase cells significantly lower than control: p<0.01 versus control cells in ENR-W. From the text:
FIG. 11. The impact of dietary compounds and natural products on primary colonic epithelium. The percentage of the collagen Daiszein (aglycone of daidzen) surface area occupied by cells (Hoechst 33342-positive) and the normalized EDU (A), alkaline phosphatase and mucin2-positive areas (B) were plotted against the compound number. The EDU, alkaline phosphatase and Muc2 areas were normalized to the total cell area. Alphabetic headings refer to categories described in Table 1.
Strategies to screen the vast number of dietary and metabolite compounds for their impact on proliferation, differentiation and other cell behaviors in the intestine have become increasingly important. However, major challenges exist due to a lack of technologies capable of faithfully duplicating the actions of these compounds on normal, healthy colonic cells. […] These attributes are central to intestinal barrier function and repair in the face of repeated chemical, physical, immune and infectious insults. Additionally controlled proliferation and terminal differentiation are key to avoiding an oncogenic state. Metabolites or natural products minimizing intestinal-cell proliferation without cell death, enhancing cell proliferation, or directing cells into the differentiated lineages are of profound interest for health maintenance and as therapeutics. The compounds represented a range of chemical classes with diverse or unknown impact on primary intestinal cells including fatty acids, bile acids, flavenoids, phytoestrogens, phenols, terpenoids, nitrates, and others. 75,000 cells were cultured on the collagen hydrogel with ENR-W (but with 10 ng/mL Wnt-3A) for 24 h to enable cells to attach to the surface, followed by incubation with the dietary/natural compounds for 48 h. The cells were then analyzed sequentially for four attributes: nuclei (Hoechst 33342), S-phase or proliferating cells (EDU), enterocyte phenotype (high alkaline phosphatase), and goblet cell marker (Muc2) (FIGS. 11A-B). […] In particular, glucosinolates (#68, #69, #70), responsible for the bitterness of cabbage and brussel sprouts, are toxic when consumed at high concentrations and this may in part be due to their direct effects on intestinal cells. […] These included the most of the phenols assayed such as gallic acid (#28), ellagic acid (#29), and punicalagin (#31) but also compounds such as valproate (#6) and […]-carotene (#58) all of which are recognized in the literature as inducing cell differentiation. […] Molecules promoting enterocyte formation may exert some of their beneficial effects by enhancing intestinal barrier and/or absorptive function and thus may be worthy of additional investigation. […] Matairesinol increases COX-2-derived prostaglandin E2 in Caco-2 cells and prostaglandin E2 has been characterized as inducing Goblet cell formation in the colon to increase mucous secretion. Screening primary colon epithelium directly links the matairesinol to increased mucous production and this may be through a prostaglandin E pathway.

The test system of data set [2] is Caco-2 cells. The following applies: cited from earlier work.
Data set [3] concerns CYP1A1. Nature of the data set: ethoxyresorufin O-deethylase (EROD) assay of CYP1A1 induction in the 2D colonic epithelial monolayer. It counts as cell-based, mouse. Particulars: 0.1 μM TCDD. The method, then:
FIG. 7. […] Top panel, day 0. Bottom panel, day 5. White dotted line indicates the perimeter of the insert. (B) SEM images of 2D monolayer. […] (C) Basal EROD activity and inducibility in 2D monolayer cells. 2D monolayer was cultured under ENR-WB for 5 days. […] CYP1A1 enzyme activity was determined using the ethoxyresorufin O-deethylase (EROD) assay, n=3.
Intestine is a vital organ that has many important functions (such as absorption, secretion, etc.). One function is metabolism through cytochrome P450 (CYP) enzyme activity that provides the principal, initial source of biotransformation/detoxification of ingested xenobiotics (Kaminsky, L. S. et al., Critical Reviews in Toxicology 21, 407-422 (1992)). Among the CYPs, CYP1A1 plays a physiological role in the degradation of estradiol into 2-OH-estradiol (Paine, M. F. et al., Drug Metabolism and Disposition 27, 360-364 (1999)). In vivo, CYP1A1 in rat intestines can be induced by feeding the rats with polycyclic aromatic hydrocarbons (PAHs) (Martignoni, M. et al., Chemico-Biological Interactions 151, 1-11 (2004)). […] The CYP1A1 enzyme activity was determined using an ethoxyresorufin O-deethylase (EROD) assay (Jones, S. P. et al., Ecotoxicology 23, 802-808 (2014)).

`O=C1O[C@H]2[C@@H]3OC(=O)c4cc(O)c(O)c(O)c4-c4c(O)c(O)c5oc(=O)c6c(c(O)c(O)c7oc(=O)c4c5c76)-c4c(cc(O)c(O)c4O)C(=O)OC[C@H]3OC(O)[C@@H]2OC(=O)c2cc(O)c(O)c(O)c2-c2c1cc(O)c(O)c2O` (mixture of isomers) [#31, Punicalagin]: in data set [1], the “S-phase or proliferating cells (EDU)” value is recorded as “suppressed proliferation” and the “number of nuclei / cell number (Hoechst 33342)” value (“number of nuclei / cell number” for short) is reported as “did not greatly diminish cell number; also recorded: without cell number reduction”. Also, the “enterocyte phenotype (alkaline phosphatase expression)” value (“enterocyte phenotype” for short) in data set [1] (relative to control) was “directed cells towards the enterocyte lineage”. `COc1cc(-c2oc3cc(O)cc(O)c3c(=O)c2O)ccc1O` [#21, Isorhamnetin]: in data set [1], the “S-phase or proliferating cells (EDU)” value is on record as “increased cell numbers in S-phase”. Regarding `O=C(O)c1cc(O)c(O)c(O)c1` [#28, Gallic Acid], in data set [1], the “S-phase or proliferating cells (EDU)” value is on record as “suppressed proliferation” and the “number of nuclei / cell number” value is reported as “did not greatly diminish cell number”. Turning to `O=c1oc2c(O)c(O)cc3c(=O)oc4c(O)c(O)cc1c4c23` [#29, Ellagic Acid], in data set [1], the “S-phase or proliferating cells (EDU)” value is “suppressed proliferation” and the “number of nuclei / cell number” value was “did not greatly diminish cell number”. The like results for `CN[C@@H]1C[C@H]2O[C@@](C)([C@@H]1OC)n1c3ccccc3c3c4c(c5c6ccccc6n2c5c31)C(=O)NC4` [#32, Aglycones (Staurosporine), reference compound] were, in that order, “decreased” and “significantly increased”.

`CC12CCC(CC1)C(C)(C)O2` [#42, Eucalyptol]: the “S-phase or proliferating cells (EDU)” value in data set [1] is “minimized cell proliferation”. Besides, the “enterocyte phenotype” value in data set [1] (relative to control) is listed as “increasing alkaline phosphatase expression”. On to `C/C(=C\CO)CCC[C@H](C)CCC[C@H](C)CCCC(C)C` [#51, Phytol], for which the “number of nuclei / cell number” value in data set [1] is reported as “without cell number reduction”. In data set [1] (relative to control), the “enterocyte phenotype” value is recorded as “directed cells towards the enterocyte lineage”. As to `CC1=C(/C=C/C(C)=C/C=C/C(C)=C/C=C/C=C(C)/C=C/C=C(C)/C=C/C2=C(C)CCCC2(C)C)C(C)(C)CCC1` [#58, β-carotene], in data set [1], the “S-phase or proliferating cells (EDU)” value is “suppressed proliferation” and the “number of nuclei / cell number” value is “did not greatly diminish cell number”. Consider `S=C=NCc1ccccc1` [#68, Glucotropaeolin isothiocyanate], for which, in data set [1], the “growth suppression: both number of nuclei and S-phase cells significantly lower than control” value is listed as “growth suppressive”. The same measure, in the same setting: then `O=S(=O)(O)ON=C(CCc1ccccc1)S[C@@H]1O[C@H](CO)[C@@H](O)[C@H](O)[C@H]1O` [#69, Gluconasturtiin], with “growth suppressive”. In the case of `C[S+]([O-])CCCC/C(=N\OS(=O)(=O)O)S[C@@H]1O[C@H](CO)[C@@H](O)[C@H](O)[C@H]1O` (some centres unmarked) [#70, Glucoraphanin], the “growth suppression: both number of nuclei and S-phase cells significantly lower than control” value in data set [1] is “growth suppressive”. Take `COc1cc(C[C@H]2COC(=O)[C@@H]2Cc2ccc(O)c(OC)c2)ccc1O` [#77, Matairesinol]: the “goblet cell marker Muc2 or mucin expression” value in data set [1] (relative to control, p<0.01) is given as “significantly increased”. The “COX-2-derived prostaglandin E2” value in data set [2] is reported as “increases”.

As for `Clc1cc2c(cc1Cl)Oc1cc(Cl)c(Cl)cc1O2` [TCDD, 2,3,7,8-tetrachlorodibenzo-p-dioxin], the “CYP1A1 activity increased compared with the cells treated with toluene vehicle” value in data set [3] (2D monolayer cultured under ENR-WB 5 days, treated 20 hours, EROD assay) came out at 40 fold. The “CYP1A1 enzyme activity induction by PAHs” value in data set [3] (2D monolayer treated 20 hours, 10 μM βNF, 1 μM BaP, toluene vehicle) was “effectively demonstrated”.
